Data published in patent publication US20240197666A1, “DITERPENOID COMPOUNDS THAT ACT ON PROTEIN KINASE C (PKC)” (K-Gen Therapeutics, Inc., priority 2021, published 2024).

Columns and labels:
[1] = system: phosphorylation of PKCμ, PKCδ and Erk1/2 in A549 lung cancer cells; assay: Western blot of activation of PKC and downstream target protein in A549 cells; assay type: cell-based; conditions: 0.3 μM, 30 minutes
Summary of the method: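 A549 cells grown overnight were treated 30 min with compound at two concentrations. Lysates were analysed by Western blot or Wes with phospho-specific antibodies to PKCμ, PKCδ (including S299) and Erk1/2, using β-actin or vinculin loading controls. Prostratin at 1 μM served as reference.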

[2] = system: MC38 tumors; assay: MC38 syngeneic model, efficacy and re-challenge; assay type: in vivo, mouse; conditions: for Live Animal at Day 50: N 8
Protocol: 8 weeks old female C57B/J6J mice were implanted subcutaneously at the right flank with 3×10^5 MC38 mouse colon cancer cells. Mice were randomized into different treatment groups (see above) when tumors grew to an average mean tumor size of 50-80 mm^3. Tumor size was measured three times weekly in two dimensions using a caliper, and the volume was expressed in mm^3 using the formula: V=0.5a×b^2 where a and b are the long and short diameters of the tumor, respectively. Mice were monitored daily for clinical signs and body weights were measured twice per week. All groups tolerated drug treatments very well with less than 10% body weight loss. […] Scabs formed near the site of IT injection and the skin recovered with minimal scaring within 3-4 weeks.
For the efficacy portion of the study, the major endpoint was the animal survival, defined as time to death or euthanasia when tumors ≥2000 mm^3. The survive rate is the proportion of live animals in each group on a given day. A Kaplan-Meier analysis was performed to compare animal survival between vehicle and treated groups. P<0.05 was considered to be statistically significant. Another endpoint is tumor clearance, for which the mice were monitor for over 50 days after the start of the treatment.
To test if anti-tumor immunity was developed in the cured mice, the re-challenge portion of the study was conducted. The major endpoint was the tumor initiation of the re-implanted tumor cells. Tumor fee survive rate is the proportion of tumor fee mice and the mice whose tumor volumes were below 50 mm^3 in each group on a given day. A Mann-Whitney method was performed to analyze the tumor initiation rate at the end of the re-challenge study and P<0.05 was considered to be statistically significant.
MC38 cells (3×10^5) were re-implanted subcutaneously to the other flank (left flank) of the 8 tumor-eradicated mice (two from group 2, three each from groups 3 and 5). No MC38 tumors formed after 36 days in these 8 tumor-eradicated mice. To study the anti-tumor immunity further in the 8 tumor-eradicated mice, MC38 cells (3×10^5) and unrelated 3LL cells (lung cancer) (2×10^6) were re-implanted and implanted at opposite flanks in these mice. As control, five age-matched naïve mice were implanted with 3LL and MC38 tumor cells at opposite flanks. The re-challenge for control and K1K1-C1348101 groups were performed independently, but with same method and condition.

[3] = system: CT26 tumors; assay: CT26 syngeneic model, IT injection, efficacy and re-challenge; assay type: in vivo, mouse
Protocol: Each 6-8 weeks old female Balb/c mouse was implanted subcutaneously with 3×10^5 CT26 mouse colon cancer cells. 20 animals were randomized when the average tumor volume reached 60 mm3. Tumor size was measured as described in Example 76. Animal body weight was monitored regularly as an indirect measure of toxicity. All mice tolerated drug treatments very well with less than 10% body weight loss. […] Scabs formed a few days later and the skin recovered with minimal scaring within 3-4 weeks.
For the efficacy portion of the study, the major endpoints were tumor growth inhibition and the animal survival.
To test if anti-tumor immunity was developed in the cured mice, the re-challenge portion of the study was conducted. The major endpoint was the tumor initiation (measurable tumor >50 mm^3) of the re-implanted tumor cells.
CT26 cells (3×10^5) were re-implanted into the right lower flank of the cured animals and 10 age-matched naïve control animals from the same batch to challenge animal immune system. An unrelated 4T1 breast cancer cell line (1×10^5) was implanted in the left upper flank of these animals at the same time. Tumor initiation and tumor growth were monitored. Data points represent group means of the tumor volumes and error bars represent standard error of the mean (SEM).

[4] = re-challenge of 8 tumor-eradicated mice with 3LL cells
[5] = re-challenge of 8 tumor-eradicated mice with MC38 cells
[6] = challenge of 6 cured mice with 4T1 cells
[7] = re-challenge of 6 cured mice with CT26 cells, 32 days

CC1=C[C@H]2[C@@]3(O)[C@H](C)C[C@]4(OC(=O)[C@@H](N)CC5CCCCC5)[C@H]([C@@H]3C=C(CO)C[C@]2(O)C1=O)C4(C)C
phosphorylation of PKCμ, PKCδ and Erk1/2 [1]: induced high levels of phosphorylation

CC1=C[C@H]2[C@@]3(O)[C@H](C)C[C@]4(OC(=O)[C@@H](N)C5Cc6ccccc6C5)[C@H]([C@@H]3C=C(CO)C[C@]2(O)C1=O)C4(C)C
phosphorylation of PKCμ, PKCδ and Erk1/2 [1]: induced high levels of phosphorylation

CC1=C[C@H]2[C@@]3(O)[C@H](C)C[C@]4(OC(=O)[C@H](N)CCCCCCc5ccccc5)[C@H]([C@@H]3C=C(CO)C[C@]2(O)C1=O)C4(C)C
complete eradication of tumors ([2]; group 2 (5 mg/ml), 2 out of 8 tumors): 25% | % Increased Survival Time ([2]; group 2: 5 mg/ml, 20 μl it): 45% | Increased Survival Time ([2]; group 2: 5 mg/ml, 20 μl it): 9 days | Median ([2]; group 2: 5 mg/ml, 20 μl it): 29 days | Live Animal at Day 50 ([2]; group 2: 5 mg/ml, 20 μl it, D 0,1,2,7,8,9): 2 | complete eradication of tumors ([2]; group 3 (20 mg/ml), 3 out of 8 tumors): 37.5% | % Increased Survival Time ([2]; group 3: 20 mg/ml, 20 μl): 23% | Increased Survival Time ([2]; group 3: 20 mg/ml, 20 μl): 4.5 days | Median ([2]; group 3: 20 mg/ml, 20 μl): 24.5 days | Live Animal at Day 50 ([2]; group 3: 20 mg/ml, 20 μl, D 0,1,2): 3 | Tumor initiation (mice) [2, 4]: 8 | Tumor-free (mice) [2, 4]: 0 | Tumor initiation (mice) [2, 5]: 0 | Tumor-free (mice) [2, 5]: 8 | body weight loss ([3]; 20 mg/ml, 20 μl (400 μg) IT, Balb/c mice): less than 10% | mice alive at day 50 with tumors completely eradicated ([3]; N 10): 6 | median survival ([3]; analysis to day 50): not reached | Tumor initiation (mice) [3, 6]: 6 | Tumor-free (mice) [3, 6]: 0 | mice with tumors eliminated ([3]; day 3 after the first IT dose, N 10): 8 | mean tumor volume ([3]; day 12, 20 mg/ml, 20 μl IT): 35 mm^3 | mice with tumor relapse ([3]; from day 10, N 10): 4 | Tumor initiation (mice) [3, 7]: 0 | Tumor-free (mice) [3, 7]: 6
